# Publication PMC12363935, “Unc-51 Like Kinase 3 (ULK3) is essential for autophagy and cell survival in multiple myeloma” (Research Square, 2025)
# Test system: ULK3 KO U266 MM cells
# Test: ULK3 KO U266 in vivo model
# Set-up: species or system mice
# Details: ULK3 KO U266, 10 mg/kg/day subcutaneously, M-F from day 20
# Description: Supplementary Figure 7. ULK3 ablation suppresses MM cell growth. A. Immunoblotting for ULK3 expression in parental, NTC CTRL and ULK3 KO U266 cells. Of note, NTC CTRL and ULK3 KO were used for the in vivo ULK3 KO model. Densitometric quantification values are annotated on the blot. B. Mice (n = 20/group) were tail vein injected […]
# with 1 x106 NTC CTRL and ULK3 KO U266 MM cells. […]
# onset of the disease compared to NTC CTRL . (C) Representative confocal microscopy images of formalin fixed, paraffin embedded tumors (5-micron sections), stained for human mitochondria (hMITO) as a readout of MM cells colocalization. Alexa Fluor Plus 488 goat anti-mouse were used as secondary antibody. (D) MTS showing the inhibitory profile of MA9060 on NTC CTRL and ULK3 KO for U266 cell line. Treatment with MA9060 (0-100 uM) for 48h show reduced activity of MA9060 in ULK3 KO cell lines. E. Mice were divided respectively in two groups, vehicle control (n = 10, β-HCD Captisol) or MA9-060 (n = 10). Treatment started at day 20 (M-F, 10 mg/kg/day subcutaneously). MA9-060 treatment improves overall survival in the NTC CTRL arm (median 41 days post-tumor […]
# 38 For MA9 therapy efficacy, mice were treated with vehicle (n=10) or MA9 (10 mg/kg/day, 39 subcutaneously, M-F from day 20; n=10) (Supplementary Fig. 7E, F). Survival and toxicity 40 (weight, clinical signs) was monitored. […]
structure (smiles),measurement,value
Cc1cnc(Nc2ccc(C3CCN(C)CC3)c(F)c2)nc1Nc1ccc(Cl)c(NS(=O)(=O)C(C)(C)C)c1 [MA9060],median overall survival,87 days
